Test results taken from PMC9151520 (Archives of Toxicology, 2022).
pEC50: −log10 of the molar value. Where “and” joins values, the source holds several entries; their conditions need not be identical. Equal values may be shown once. Read-outs that look alike come from different tables or passages of the source.

How the values were obtained:
[1] = test system: p53 signaling (p53RE-bla HCT-116 cells); assay: cells; format: cell-based
[2] = test system: p53 signaling (p53RE-bla HCT-116 cells)
[3] = test system: p53 signaling (p53RE-bla HCT-116 cells); remark: listed apart in the source
[4] = read-out: p53 activation EC50, cherry pick confirmation
[5] = read-out: p53 activation EC50, primary screening
[6] = read-out: Viability EC50, cherry pick confirmation

CC(CN1CC(=O)NC(=O)C1)N1CC(=O)NC(=O)C1 (stereo not shown) [Razoxane]
31.9%: Emax ([1]; Homo sapiens, HCT-116, read-out: p53 activation efficacy, cherry pick confirmation)
4.68: pEC50 ([1]; Homo sapiens, HCT-116, read-out: p53 activation EC50, cherry pick confirmation)
4.94: pEC50 ([1]; Homo sapiens, HCT-116, read-out: p53 activation EC50, primary screening)
60.2%: Emax ([1]; Homo sapiens, HCT-116, read-out: p53 activation efficacy, primary screening)
inactive: p53 activation EC50, cherry pick confirmation [2] | p53 activation EC50, primary screening [2] | p53 activation efficacy, cherry pick confirmation [2] | p53 activation efficacy, primary screening [2] | p53 activation EC50, cherry pick confirmation [3] | p53 activation EC50, primary screening [3] | p53 activation efficacy, cherry pick confirmation [3] | p53 activation efficacy, primary screening [3] | Viability EC50, cherry pick confirmation (p53RE-bla HCT-116 cells) | Viability EC50, primary screening (p53RE-bla HCT-116 cells) | Viability efficacy, cherry pick confirmation (p53RE-bla HCT-116 cells) | Viability efficacy, primary screening (p53RE-bla HCT-116 cells)

Oc1ccc(C2(c3ccc(O)cc3)c3ccccc3-c3ccccc32)cc1 [4,4'-(9H-Fluorene-9,9-diyl)diphenol]
inactive: p53 activation EC50, cherry pick confirmation [2] | p53 activation EC50, primary screening [2] | p53 activation efficacy, cherry pick confirmation [2] | p53 activation efficacy, primary screening [2] | p53 activation EC50, cherry pick confirmation [3] | p53 activation EC50, primary screening [3] | p53 activation efficacy, cherry pick confirmation [3] | p53 activation efficacy, primary screening [3] | Viability EC50, primary screening (p53RE-bla HCT-116 cells)
4.32: pEC50 [1, 5]
4.31: pEC50 (p53RE-bla HCT-116 cells; read-out: Viability EC50, primary screening)
157.361: p53 activation efficacy, primary screening [1]
4.35: pEC50 [1, 4]
169.95: p53 activation efficacy, cherry pick confirmation [1]
4.46 and 4.49 and 4.34: pEC50 (p53RE-bla HCT-116 cells; [6])

Nc1ccc2cc3ccc(N)cc3nc2c1.Nc1ccc2cc3ccc(N)cc3nc2c1.O=S(=O)(O)O [Proflavin hemisulfate]
364.531: p53 activation efficacy, cherry pick confirmation [1]
5.31: pEC50 [1, 5]
4.75: pEC50 (p53RE-bla HCT-116 cells; [6])
inactive: p53 activation EC50, cherry pick confirmation [2] | p53 activation EC50, primary screening [2] | p53 activation efficacy, cherry pick confirmation [2] | p53 activation efficacy, primary screening [2] | p53 activation EC50, cherry pick confirmation [3] | p53 activation EC50, primary screening [3] | p53 activation efficacy, cherry pick confirmation [3] | p53 activation efficacy, primary screening [3] | Viability EC50, cherry pick confirmation (p53RE-bla HCT-116 cells) | Viability EC50, primary screening (p53RE-bla HCT-116 cells) | Viability efficacy, primary screening (p53RE-bla HCT-116 cells)
5.26: pEC50 [1, 4]
180.344: p53 activation efficacy, primary screening [1]

O=C(c1ccc(O)cc1)c1ccc(O)cc1O [2,4,4'-Trihydroxybenzophenone]
inactive: EC50, p53 activation, cherry pick confirmation [1] | Efficacy, p53 activation, cherry pick confirmation [1] | EC50, p53 activation, cherry pick confirmation [2] | EC50, p53 activation, primary screening [2] | Efficacy, p53 activation, cherry pick confirmation [2] | Efficacy, p53 activation, primary screening [2] | EC50, p53 activation, cherry pick confirmation [3] | EC50, p53 activation, primary screening [3] | Efficacy, p53 activation, cherry pick confirmation [3] | Efficacy, p53 activation, primary screening [3] | EC50, viability, cherry pick confirmation (p53RE-bla HCT-116 cells) | EC50, viability, primary screening (p53RE-bla HCT-116 cells) | Efficacy, viability, cherry pick confirmation (p53RE-bla HCT-116 cells) | Efficacy, viability, primary screening (p53RE-bla HCT-116 cells)
4.33: pEC50 ([1]; read-out: EC50, p53 activation, primary screening)
51.9983: Efficacy, p53 activation, primary screening [1]

CCCSP(=S)(OCC)Oc1ccc(SC)cc1 (stereo not shown) [Sulprofos]
5.16: pEC50 [2, 4]
inactive: p53 activation EC50, cherry pick confirmation [1] | p53 activation EC50, primary screening [1] | p53 activation efficacy, cherry pick confirmation [1] | p53 activation efficacy, primary screening [1] | p53 activation EC50, cherry pick confirmation [3] | Viability EC50, cherry pick confirmation (p53RE-bla HCT-116 cells) | Viability EC50, primary screening (p53RE-bla HCT-116 cells) | Viability efficacy, cherry pick confirmation (p53RE-bla HCT-116 cells) | Viability efficacy, primary screening (p53RE-bla HCT-116 cells)

CNC(=O)Oc1ccccc1OC(C)C [Propoxur]
inactive: p53 activation EC50 [1] | p53 activation efficacy [1] | p53 activation EC50 [2] | p53 activation EC50 [3] | Viability EC50 (p53RE-bla HCT-116 cells) | Viability efficacy (p53RE-bla HCT-116 cells)

Clc1ccc2cc3ccccc3cc2c1 [2-Chloroanthracene]
70.691% and 61.8737%: p53 activation Efficacy, No MS [1]
4.45: pEC50 ([1]; read-out: p53 activation EC50, No MS)
inactive: p53 activation EC50, RLM [2] | p53 activation EC50, HLM [3] | Viability EC50, HLM (p53RE-bla HCT-116 cells) | Viability EC50, No MS (p53RE-bla HCT-116 cells) | Viability EC50, RLM (p53RE-bla HCT-116 cells) | Viability Efficacy, HLM (p53RE-bla HCT-116 cells) | Viability Efficacy, No MS (p53RE-bla HCT-116 cells) | Viability Efficacy, RLM (p53RE-bla HCT-116 cells)
4.30: pEC50 ([2]; read-out: p53 activation EC50, RLM)
4.63: pEC50 ([3]; read-out: p53 activation EC50, HLM)
